Results reported in US8435992B2, “Multiple myeloma treatments” (Pharma Mar S.A., priority 2008, dated 2013).

Experiments:
[1] = Systemic toxicity and body weight in xenografted mice; assay type: in vivo
Protocol: (§1) The in vivo efficacy of PM00104 was studied in a model of human plasmocytoma xenografted in CB17-SCID mice. These experiments were performed using the very sensitive cell line MM1S and the less sensitive one OPM-1. Two cohorts of thirty mice were subcutaneously injected with each cell line and mice were randomized into three groups receiving vehicle alone, 0.8 mg/kg of PM00104, or 1 mg/Kg PM00104 intravenously (iv) once weekly for three doses.
(§2) CB17-SCID mice (The Jackson Laboratory, Bar Harbor, Me., USA) were subcutaneously inoculated into the right flank with 3×10^6 MM1S or OPM1 cells in 100 μL of RPMI-1640 medium and 100 μL of Matrigel (Becton Dickinson). When tumours became palpable, mice received PM00104 or vehicle alone. Treatment with PM00104 was given iv, at doses of 0.8 mg/kg and 1 mg/kg once weekly for three doses. The control group received the vehicle alone (sterile water for injection plus saline).

MM1S cells [2] = experiment: BrdU uptake of MM1S cells with IL-6, IGF-I or co-cultured BMSCs; assay type: cell-based, human; details: 48 hours
Protocol: (§3) FIG. 3. PM00104 overcomes the protective effects of IL-6, IGF-I, and adherence to patient BMSCs. MM1S cells were treated for 48 hours with indicated concentrations of PM00104 in the presence or absence of IL-6 (FIG. 3A), IGF-I (FIG. 3B), or BMSCs derived from a MM patient (FIG. 3C). DNA synthesis was determined by measuring BrdU incorporation during the last 8 hours of 48-hour cultures. Additionally, BMSCs were cultured with different doses of PM00104 for 48 hours and the cytotoxicity was analyzed by MTT assay (FIG. 3D). Data is presented as the mean±SD of quadruplicates.
The presence of the BM microenvironment confers protection to MM through their adhesion or through the production of several cytokines such as IL-6 or IGF-I. In order to test whether PM00104 was able to inhibit this protective effect of the BM microenvironment, MM1S cells were incubated with IL-6 (1 nM) or IGF-I (10 nM), or co-cultured with BM stromal cells (BMSCs) for 48 hours, and then treated with increasing concentrations of PM00104. BMSCs were plated in 96-well culture dishes (50,000 cells/well) and allowed to reach confluence during 48 hours. Then, 30,000 myeloma cells were plated in RPMI 1640 containing 10% serum. Proliferation of MM cells was then assessed by Bromodeoxyuridine (BrdU) uptake (Maiso P et al. Br. J. Haematol. 2008, 141, 470-482). BrdU was added for the last 8 hours, and BrdU uptake was measured using a commercial kit (Roche Biochemicals), following the manufacturer's instructions.

OPM-1 plasmocytomas = experiment: Human plasmocytoma xenograft in CB17-SCID mice (OPM-1); assay type: in vivo; details: for tumor volume (mean±SD): after 14 days of treatment
Protocol: as §1, §2
(§4) Caliper measurements of the tumour diameters were performed every day, and the tumour volume was estimated as the volume of an ellipse using the following formula: V=4/3π×(a/2)×(b/2)^2, where “a” and “b” correspond to the longest and shortest diameter, respectively. Animals were euthanized when their tumours reached 2 cm. Differences in tumour volumes between treated and control groups were evaluated using 1-way analysis of variance and Bonferroni post hoc tests. Survival was estimated from the day of initiation of treatment, and statistical differences were assessed by Kaplan-Meier curves with the Log Rank test. Statistical analyses were performed with the SPSS-15.0 software (SPSS Inc. Chicago, Ill., USA) and statistical significance was defined as p<0.05.

U266 = experiment: MTT viability assay, MM cell line panel; assay type: cell-based; details: Homo sapiens, U-266, 48 hours
Protocol: (§5) Antitumor activity of PM00104 in MM was evaluated by using a cell line panel comprising the following 9 MM cell lines: MM1S, MM1R, MM144, RPMI8226, RPMI-LR5, U266, U266-LR7, OPM-1, and OPM-2. These cell lines were grown in RPMI 1640 medium with L-glutamine supplemented with antibiotics (penicillin at 100 U/mL, streptomycin at 100 μg/mL) and 10% fetal bovine serum (FBS) at 37° C. in a humidified atmosphere in the presence of 5% CO2-95% air.
(§6) Cell lines were treated with increasing concentrations of the PM00104 (0.1-50 nM) for 24, 48 and 72 hours, and viability was analyzed by using 3-(4,5-dimethylthiazol-2-yl)-2,5-diphenyltetrazolium bromide (MTT) colorimetric assay. Briefly, MM cell lines were seeded at a density of 50,000 cells/200 […] medium per well in 48-well plates, and treated with a determined drug dose and time. Two hours before the end of the treatment, a MTT solution (5 mg/mL) in PBS) was added and the tetrazolium salt was reduced by metabolically active cells to coloured formazan crystals. After solubilization of these crystals by overnight incubation with 10% SDS-HCl solution, absorbance was measured at 570 nm with correction at 630 nm. Results are presented as the mean±SD of quadruplicates of an experiment that was repeated at least twice.

OPM-2 = experiment: MTT viability assay, MM cell line panel; assay type: cell-based; details: Homo sapiens; OPM-2, MTT, 48 hours
Protocol: as §5, §6

MM144 = experiment: MTT viability assay, MM cell line panel; assay type: cell-based
Protocol: as §5, §6

RPMI-LR5 = experiment: MTT viability assay, MM cell line panel; assay type: cell-based; details: RPMI-LR5 (melphalan resistant), 48 hours
Protocol: as §5, §6

U266-LR7 = experiment: MTT viability assay, MM cell line panel; assay type: cell-based; details: U266-LR7 (melphalan resistant), 48 hours
Protocol: as §5, §6

OPM-1 = experiment: MTT viability assay, MM cell line panel; assay type: cell-based; details: Homo sapiens; OPM-1, MTT, 48 hours
Protocol: as §5, §6

RPMI8226 = experiment: MTT viability assay, MM cell line panel; assay type: cell-based; details: Homo sapiens, RPMI-8226, 48 hours
Protocol: as §5, §6

MM1R = experiment: MTT viability assay, MM cell line panel; assay type: cell-based
Protocol: as §5, §6

MM1S = experiment: MTT viability assay, MM cell line panel; assay type: cell-based, human
Protocol: as §5, §6

MM1S plasmocytomas = experiment: Human plasmocytoma xenograft in CB17-SCID mice (MM1S); assay type: in vivo; details: for tumor volume (mean±SD): after 15 days of treatment
Protocol: as §1, §2, §4

[3] = system: BMSCs derived from a MM patient; experiment: MTT cytotoxicity on BMSCs; assay type: cell-based, human; details: 48 hours
Protocol: as §3

[4] = system: myelomatous plasma cells from bone marrow samples of MM patients; experiment: Ex vivo apoptosis (Annexin V) in bone marrow cells from MM patients; assay type: cell-based, human; details: 1-50 nM, 18 hours
Protocol: FIG. 2. Freshly isolated bone marrow cells obtained from six MM patients were treated ex vivo with PM00104 (1-50 nM) for 18 hours. After the incubation period, cells were stained with the combination of Annexin V-FITC, and three monoclonal antibodies against plasma cell surface antigens (CD38, CD56 and CD45) which allow the analysis of the induction of apoptosis in the myelomatous population. Results are given as the percentage of Annexin V positive cells related to the percentage of viable cells in the untreated sample.
Additionally, the effect of PM00104 was further investigated ex vivo in cells isolated from bone marrow (BM) samples obtained from six patients with MM. Samples were lysed with ammonium chloride in order to remove red blood cells, and white cells were maintained in RPMI-1640 containing antibiotics (penicillin 100 U/ml, streptomycin 100 μg/ml) and 20% FBS. […] A total of 50,000 cells were acquired on a FACScalibur flow cytometer (BD Biosciences) and analyzed with the “Paint-a-Gate” program. Apoptosis was analyzed based on the Annexin-V positivity in the different populations: tumour PCs as well as in normal residual lymphocytes and granulo-monocytes. The percentage of Annexin V positive cells after treatment with PM00104 was calculated over the Annexin V negative cells (viable cells) in the control samples (without treatment).

MM1S cells [5] = experiment: Combination with antimyeloma agents, MTT assay, Chou Talalay combination index; assay type: cell-based, human; details: 72 hours; for combination index (CI): Chou and Talalay method
Protocol: FIG. 5. PM00104 potentiates the antimyeloma action of conventional and novel antimyeloma agents. MM1S cells were treated with suboptimal concentrations of PM00104 (Zalypsis, Z) and other antimyeloma agents such as Dexamethasone (Dex), melphalan (Mel), doxorubicin (Dox), bortezomib (Bort) and lenalidomide (Len) in double (FIG. 5A) and triple combinations (FIG. 5B). Cell viability was analyzed by MTT assay.
MM1S cells were treated for 72 hours, as described in example 1, with combinations of suboptimal doses of PM00104 and other antimyeloma agents such as dexamethasone, melphalan, doxorubicin, bortezomib and lenalidomide, in double and triple combinations. Cell viability was analyzed by MTT assay as described in example 1. The potency of the combination was quantified with the Calcusyn software (Biosoft, Ferguson, Mo.), which is based in the Chou Talalay method, that calculates a combination index (CI) with the following interpretation: CI>1: antagonistic effect, CI=1: additivity and CI<1 synergistic effect.

[6] = OPM-1, 0.8 mg/kg iv once weekly for three doses
[7] = OPM-1, 1 mg/kg iv once weekly for three doses
[8] = 0.8 mg/kg iv once weekly for three doses
[9] = 1 mg/kg iv once weekly for three doses

For `COc1c(C)cc2c(c1O)[C@@H]1[C@@H]3Cc4c(OC(C)=O)c(C)c5c(c4[C@H](CNC(=O)/C=C/c4cccc(C(F)(F)F)c4)N3[C@@H](O)[C@H](C2)N1C)OCO5` [PM00104], which systemic toxicity ([1]; 0.8 and 1 mg/kg iv once weekly for three doses) is on record?
Its systemic toxicity is “no significant systemic toxicity”.

And the “weight loss (of body weight as compared to the controls)” value ([1]; highest of PM00104 doses)?
The value was “around 10%”.

And the “effect on protective effect due to adhesion of plasma cells to BMSCs (BrdU uptake)” value (MM1S cells [2]; MM1S co-cultured with BMSCs)?
The value was “largely inhibited”.

What about the “effect on proliferative advantage conferred by IGF-I (BrdU uptake)” value (MM1S cells [2]; MM1S, IGF-I 10 nM) of the same molecule?
Its value is “completely abrogated”.

And the “effect on proliferative advantage conferred by IL-6 (BrdU uptake)” value (MM1S cells [2]; MM1S, IL-6 1 nM)?
Its value is “completely abrogated”.

What about the “median±SE survival” value (OPM-1 plasmocytomas; [6]) of the same molecule?
The value was 21 ± 0.8 days.

And the “tumor volume (mean±SD)” value (OPM-1 plasmocytomas; [6])?
Its value is 1879±731 mm^3.

What about the “median±SE survival” value (OPM-1 plasmocytomas; [7]) of the same molecule?
Its value is 23 ± 1.1 days.

And the “tumor volume (mean±SD)” value (OPM-1 plasmocytomas; [7])?
Its value is 1042±596 mm^3.

And the IC50 (U266)?
The IC50 was 1 to 2 nM.

What about the IC50 (OPM-2) of the same molecule?
Its IC50 is 1 to 2 nM.

What about the “IC50 at 48 hours” value (MM144) of the same molecule?
The value was “picomolar concentrations”.

What about the IC50 (RPMI-LR5) of the same molecule?
Its IC50 is 1 to 2 nM.

And the IC50 (U266-LR7)?
Its IC50 is 1 to 2 nM.

What about the IC50 (OPM-1) of the same molecule?
The IC50 was 1 to 2 nM.

And the IC50 (RPMI8226)?
The IC50 was 1 to 2 nM.

What about the “IC50 at 48 hours” value (MM1R) of the same molecule?
Its value is “picomolar concentrations”.

What about the “IC50 at 48 hours” value (MM1S) of the same molecule?
The value was “picomolar concentrations”.

And the “median±SE survival” value (MM1S plasmocytomas; [8])?
Its value is 52 ± 4.8 days.

What about the “tumor volume (mean±SD)” value (MM1S plasmocytomas; [8]) of the same molecule?
The value was 420±242 mm^3.

And the “median±SE survival” value (MM1S plasmocytomas; [9])?
Its value is 59 ± 5.5 days.

What about the “tumor volume (mean±SD)” value (MM1S plasmocytomas; [9]) of the same molecule?
The value was 176±78 mm^3.

What about the “cytotoxic effect on BMSCs” value [3] of the same molecule?
The value was “very resistant”.

What about the “sensitivity of patient samples (Annexin V positive cells)” value ([4]; four out of six samples (patients 1, 6, 3 and 5)) of the same molecule?
The value was “very sensitive to low concentrations”.

And the “sensitivity of patient samples (Annexin V positive cells)” value ([4]; patient 4, secondary plasma cell leukemia)?
The value was “intermediate sensitivity”.

And the “effect of combination on cell viability” value (MM1S cells [5]; with bortezomib)?
Its value is “promising additive/synergistic results”.

And the “efficacy of triple combination vs respective double combinations” value (“efficacy … vs respective double combinations” for short) (MM1S cells [5]; with dexamethasone + doxorubicin)?
Its value is “significantly improved the efficacy”.

And the “efficacy … vs respective double combinations” value (MM1S cells [5]; with dexamethasone + lenalidomide)?
The value was “significantly improved the efficacy”.

And the “efficacy … vs respective double combinations” value (MM1S cells [5]; with dexamethasone + melphalan)?
The value was “significantly improved the efficacy”.

What about the “combination index (CI)” value (MM1S cells [5]; with dexamethasone) of the same molecule?
The value was 0.78.

What about the “combination index (CI)” value (MM1S cells [5]; with doxorubicin) of the same molecule?
The value was 0.64.

And the “combination index (CI)” value (MM1S cells [5]; with lenalidomide)?
Its value is 0.55.

What about the “combination index (CI)” value (MM1S cells [5]; with melphalan) of the same molecule?
The value was 0.48.
